Assay results taken from ChEMBL document CHEMBL1142177, “Effects of age, gender, and race/ethnicity on the pharmacokinetics of posaconazole in healthy volunteers” (Antimicrob Agents Chemother, 2007).

Experiments:
Type in all cases: ADME, organism-based
[1] = Cmax in >=65 yr old man plasma at 400 mg, po twice daily after 8 days; set-up: dose 400 mg, route oral; conditions: male, human
[2] = Tmax in >=65 yr old man plasma at 400 mg, po twice daily after 8 days; conditions: male, human
Homo sapiens [3] = experiment: AUC (0-12 hrs) in >=65 yr old man plasma at 400 mg, po twice daily after 8 days; set-up: time < 12 hr, dose 400 mg, route oral; conditions: in vivo
[4] = Half life in >=65 yr old man plasma at 400 mg, po twice daily after 8 days; conditions: male, human
Homo sapiens [5] = experiment: Apparent total clearance in >=65 yr old man plasma at 400 mg, po twice daily after 8 days; conditions: in vivo, 192 h
[6] = Cmax in >=65 yr old woman plasma at 400 mg, po twice daily after 8 days; set-up: dose 400 mg, route oral; conditions: female, human
[7] = Tmax in >=65 yr old woman plasma at 400 mg, po twice daily after 8 days; conditions: female, human
Homo sapiens [8] = experiment: AUC (0-12 hrs) in >=65 yr old woman plasma at 400 mg, po twice daily after 8 days; set-up: dose 400 mg, time < 12 hr, route oral; conditions: in vivo
[9] = Half life in >=65 yr old woman plasma at 400 mg, po twice daily after 8 days; conditions: female, human
Homo sapiens [10] = experiment: Apparent total clearance in >=65 yr old woman plasma at 400 mg, po twice daily after 8 days; conditions: in vivo, 192 h
[11] = Cmax in white racial/ethnic human plasma at 400 mg, po twice daily after 8 days; set-up: dose 400 mg, route oral
[12] = Tmax in white racial/ethnic human plasma at 400 mg, po twice daily after 8 days
Homo sapiens [13] = experiment: AUC (0-12 hrs) in white racial/ethnic human plasma at 400 mg, po twice daily after 8 days; set-up: time < 12 hr, dose 400 mg, route oral; conditions: in vivo
[14] = Half life in white racial/ethnic human plasma at 400 mg, po twice daily after 8 days
Homo sapiens [15] = experiment: Apparent total clearance in white racial/ethnic human plasma at 400 mg, po twice daily after 8 days; conditions: in vivo, 192 h
[16] = Cmax in black racial/ethnic human plasma at 400 mg, po twice daily after 8 days; set-up: dose 400 mg, route oral
[17] = Tmax in black racial/ethnic human plasma at 400 mg, po twice daily after 8 days
Homo sapiens [18] = experiment: AUC (0-12 hrs) in black racial/ethnic human plasma at 400 mg, po twice daily after 8 days; set-up: dose 400 mg, time < 12 hr, route oral; conditions: in vivo
[19] = Half life in black racial/ethnic human plasma at 400 mg, po twice daily after 8 days
Homo sapiens [20] = experiment: Apparent total clearance in black racial/ethnic human plasma at 400 mg, po twice daily after 8 days; conditions: in vivo, 192 h
[21] = Cmax in 18-45 yr old human plasma at 400 mg, po twice daily after 8 days; set-up: dose 400 mg, route oral
[22] = Tmax in 18-45 yr old human plasma at 400 mg, po twice daily after 8 days
Homo sapiens [23] = experiment: AUC (0-12 hrs) in 18-45 yr old human plasma at 400 mg, po twice daily after 8 days; set-up: dose 400 mg, time < 12 hr, route oral; conditions: in vivo
[24] = Half life in 18-45 yr old human plasma at 400 mg, po twice daily after 8 days
Homo sapiens [25] = experiment: Apparent total clearance in 18-45 yr old human plasma at 400 mg, po twice daily after 8 days; conditions: in vivo, 192 h
[26] = Cmax in >=65 yr old human plasma at 400 mg, po twice daily after 8 days; set-up: dose 400 mg, route oral
[27] = Tmax in >=65 yr old human plasma at 400 mg, po twice daily after 8 days
Homo sapiens [28] = experiment: (§1) AUC (0-12 hrs) in >=65 yr old human plasma at 400 mg, po twice daily after 8 days; set-up: time < 12 hr, dose 400 mg, route oral; conditions: in vivo
[29] = as §1
Homo sapiens [30] = experiment: Apparent total clearance in >=65 yr old human plasma at 400 mg, po twice daily after 8 days; conditions: in vivo, 192 h
[31] = Cmax in 18-45 yr old man plasma at 400 mg, po twice daily after 8 days; set-up: dose 400 mg, route oral; conditions: male, human
[32] = Tmax in 18-45 yr old man plasma at 400 mg, po twice daily after 8 days; conditions: male, human
Homo sapiens [33] = experiment: AUC (0-12 hrs) in 18-45 yr old man plasma at 400 mg, po twice daily after 8 days; set-up: time < 12 hr, dose 400 mg, route oral; conditions: in vivo
[34] = Half life in 18-45 yr old man plasma at 400 mg, po twice daily after 8 days; conditions: male, human
Homo sapiens [35] = experiment: Apparent total clearance in 18-45 yr old man plasma at 400 mg, po twice daily after 8 days; conditions: in vivo, 192 h
[36] = Cmax in 18-45 yr old woman plasma at 400 mg, po twice daily after 8 days; set-up: dose 400 mg, route oral; conditions: female, human
[37] = Tmax in 18-45 yr old woman plasma at 400 mg, po twice daily after 8 days; conditions: female, human
Homo sapiens [38] = experiment: AUC (0-12 hrs) in 18-45 yr old woman plasma at 400 mg, po twice daily after 8 days; set-up: time < 12 hr, dose 400 mg, route oral; conditions: in vivo
[39] = Half life in 18-45 yr old woman plasma at 400 mg, po twice daily after 8 days; conditions: female, human
Homo sapiens [40] = experiment: Apparent total clearance in 18-45 yr old woman plasma at 400 mg, po twice daily after 8 days; conditions: in vivo, 192 h

CC[C@@H]([C@H](C)O)n1ncn(-c2ccc(N3CCN(c4ccc(OC[C@@H]5CO[C@@](Cn6cncn6)(c6ccc(F)cc6F)C5)cc4)CC3)cc2)c1=O [POSACONAZOLE]
Cmax [1]: 3250 ng/mL
Tmax [2]: 5 h
AUC (Homo sapiens [3]): 32963 ng·h/mL
half-life [4]: 37.7 h
CL (Homo sapiens [5]): 28.1 L/h
Cmax [6]: 3500 ng/mL
Tmax [7]: 6 h
AUC (Homo sapiens [8]): 37924 ng·h/mL
half-life [9]: 42.4 h
CL (Homo sapiens [10]): 25.4 L/h
Cmax [11]: 2860 ng/mL
Tmax [12]: 5 h
AUC (Homo sapiens [13]): 30091 ng·h/mL
half-life [14]: 37.3 h
CL (Homo sapiens [15]): 54 L/h
Cmax [16]: 2400 ng/mL
Tmax [17]: 5 h
AUC (Homo sapiens [18]): 25107 ng·h/mL
half-life [19]: 32.2 h
CL (Homo sapiens [20]): 37 L/h
Cmax [21]: 2610 ng/mL
Tmax [22]: 5 h
AUC (Homo sapiens [23]): 26740 ng·h/mL
half-life [24]: 31.6 h
CL (Homo sapiens [25]): 33.1 L/h
Cmax [26]: 3370 ng/mL
Tmax [27]: 5 h
AUC (Homo sapiens [28]): 35444 ng·h/mL
half-life [29]: 41.8 h
CL (Homo sapiens [30]): 26.7 L/h
Cmax [31]: 2680 ng/mL
Tmax [32]: 4 h
AUC (Homo sapiens [33]): 27784 ng·h/mL
half-life [34]: 31.3 h
CL (Homo sapiens [35]): 33.5 L/h
Cmax [36]: 2520 ng/mL
Tmax [37]: 5 h
AUC (Homo sapiens [38]): 25507 ng·h/mL
half-life [39]: 31.9 h
CL (Homo sapiens [40]): 32.6 L/h
